# Laboratory results published in the NIST ThermoML archive (doi:10.1021/je8004479).
# Numbers after ± are expanded uncertainties.
# Experiments:
# [1] = xn = mol fraction of the nth substance listed; conditions: 294 K; for mass density / viscosity: 101 kPa, Liquid; for mass density: Vibrating tube method
# [2] = refractive index (Na D-line) (dimensionless); xn = mol fraction of the nth substance listed; conditions: 294 K, 101 kPa, Liquid, Standard Abbe refractometry
structure (smiles),measurement,setting,value
CCO [ethanol] + OCC(O)CO,surface tension liquid-gas,[1]; x1 = 1,22.2 ± 1.3 mN/m
same,mass density,[1]; x1 = 1,789.91 ± 0.22 kg/m3
same,viscosity,[1]; x1 = 1,1.214 mPa·s
same,refractive index,[2]; x1 = 1,1.3618 ± 0.0032
OCC(O)CO [glycerol] + CCO,surface tension liquid-gas,[1]; x2 = 0,63.1 ± 3.2 mN/m
same,surface tension liquid-gas,[1]; x2 = 0.084,52 ± 2.7 mN/m
same,surface tension liquid-gas,[1]; x2 = 0.1222,48.8 ± 2.6 mN/m
same,surface tension liquid-gas,[1]; x2 = 0.1761,43 ± 2.3 mN/m
same,surface tension liquid-gas,[1]; x2 = 0.2037,41.7 ± 2.2 mN/m
same,surface tension liquid-gas,[1]; x2 = 0.2385,39.4 ± 2.1 mN/m
same,surface tension liquid-gas,[1]; x2 = 0.2789,35.8 ± 2 mN/m
same,surface tension liquid-gas,[1]; x2 = 0.351,33.2 ± 1.9 mN/m
same,surface tension liquid-gas,[1]; x2 = 0.4138,29.7 ± 1.7 mN/m
same,surface tension liquid-gas,[1]; x2 = 0.4841,28.5 ± 1.6 mN/m
same,surface tension liquid-gas,[1]; x2 = 0.5497,27.1 ± 1.6 mN/m
same,surface tension liquid-gas,[1]; x2 = 0.6046,25.1 ± 1.5 mN/m
same,surface tension liquid-gas,[1]; x2 = 0.6526,24.3 ± 1.4 mN/m
same,surface tension liquid-gas,[1]; x2 = 0.7451,23.5 ± 1.4 mN/m
same,surface tension liquid-gas,[1]; x2 = 0.7984,23.5 ± 1.4 mN/m
same,surface tension liquid-gas,[1]; x2 = 0.8336,23 ± 1.4 mN/m
same,surface tension liquid-gas,[1]; x2 = 0.8777,22.5 ± 1.4 mN/m
same,surface tension liquid-gas,[1]; x2 = 0.9353,22.4 ± 1.4 mN/m
same,surface tension liquid-gas,[1]; x2 = 0.9596,22.3 ± 1.3 mN/m
same,mass density,[1]; x2 = 0,1261.51 ± 0.34 kg/m3
same,mass density,[1]; x2 = 0.084,1233.48 ± 0.75 kg/m3
same,mass density,[1]; x2 = 0.1222,1220.3 ± 0.77 kg/m3
same,mass density,[1]; x2 = 0.1761,1201.19 ± 0.78 kg/m3
same,mass density,[1]; x2 = 0.2037,1191.35 ± 0.79 kg/m3
same,mass density,[1]; x2 = 0.2385,1178.37 ± 0.81 kg/m3
same,mass density,[1]; x2 = 0.2789,1162.98 ± 0.84 kg/m3
same,mass density,[1]; x2 = 0.351,1134.3 ± 0.86 kg/m3
same,mass density,[1]; x2 = 0.4138,1108.32 ± 0.9 kg/m3
same,mass density,[1]; x2 = 0.4841,1077.53 ± 0.94 kg/m3
same,mass density,[1]; x2 = 0.5497,1047.03 ± 0.98 kg/m3
same,mass density,[1]; x2 = 0.6046,1020.27 ± 1 kg/m3
same,mass density,[1]; x2 = 0.6526,995.96 ± 1.1 kg/m3
same,mass density,[1]; x2 = 0.7451,946.41 ± 1.1 kg/m3
same,mass density,[1]; x2 = 0.7984,916.05 ± 1.2 kg/m3
same,mass density,[1]; x2 = 0.8336,895.63 ± 1.2 kg/m3
same,mass density,[1]; x2 = 0.8777,868.79 ± 1.2 kg/m3
same,mass density,[1]; x2 = 0.9353,832.89 ± 1.3 kg/m3
same,mass density,[1]; x2 = 0.9596,816.85 ± 1.4 kg/m3
same,viscosity,[1]; x2 = 0,1390 ± 350 mPa·s
same,viscosity,[1]; x2 = 0.084,800.5 ± 160 mPa·s
same,viscosity,[1]; x2 = 0.1222,627.9 ± 120 mPa·s
same,viscosity,[1]; x2 = 0.1761,450 ± 73 mPa·s
same,viscosity,[1]; x2 = 0.2037,385.1 ± 58 mPa·s
same,viscosity,[1]; x2 = 0.2385,270 ± 34 mPa·s
same,viscosity,[1]; x2 = 0.2789,220.5 ± 24 mPa·s
same,viscosity,[1]; x2 = 0.351,141.4 ± 11 mPa·s
same,viscosity,[1]; x2 = 0.4138,80.71 ± 4.3 mPa·s
same,viscosity,[1]; x2 = 0.4841,54.01 ± 2.7 mPa·s
same,viscosity,[1]; x2 = 0.5497,31.52 ± 2.2 mPa·s
same,viscosity,[1]; x2 = 0.6046,20.31 ± 2.1 mPa·s
same,viscosity,[1]; x2 = 0.6526,16.7 ± 2.1 mPa·s
same,viscosity,[1]; x2 = 0.7451,9.096 ± 2 mPa·s
same,viscosity,[1]; x2 = 0.7984,5.217 ± 2 mPa·s
same,viscosity,[1]; x2 = 0.8336,4.1 ± 2 mPa·s
same,viscosity,[1]; x2 = 0.8777,3.037 mPa·s
same,viscosity,[1]; x2 = 0.9353,1.898 mPa·s
same,viscosity,[1]; x2 = 0.9596,1.49 mPa·s
same,refractive index,[2]; x2 = 0,1.474 ± 0.0035
same,refractive index,[2]; x2 = 0.084,1.468 ± 0.0035
same,refractive index,[2]; x2 = 0.1222,1.466 ± 0.0035
same,refractive index,[2]; x2 = 0.1761,1.4619 ± 0.0035
same,refractive index,[2]; x2 = 0.2037,1.4592 ± 0.0034
same,refractive index,[2]; x2 = 0.2385,1.4562 ± 0.0034
same,refractive index,[2]; x2 = 0.2789,1.4528 ± 0.0034
same,refractive index,[2]; x2 = 0.351,1.447 ± 0.0034
same,refractive index,[2]; x2 = 0.4138,1.4392 ± 0.0034
same,refractive index,[2]; x2 = 0.4841,1.4326 ± 0.0034
same,refractive index,[2]; x2 = 0.5497,1.4253 ± 0.0034
same,refractive index,[2]; x2 = 0.6046,1.4179 ± 0.0034
same,refractive index,[2]; x2 = 0.6526,1.4131 ± 0.0033
same,refractive index,[2]; x2 = 0.7451,1.4016 ± 0.0033
same,refractive index,[2]; x2 = 0.7984,1.3934 ± 0.0033
same,refractive index,[2]; x2 = 0.8336,1.3885 ± 0.0033
same,refractive index,[2]; x2 = 0.8777,1.3815 ± 0.0033
same,refractive index,[2]; x2 = 0.9353,1.3727 ± 0.0032
same,refractive index,[2]; x2 = 0.9596,1.3681 ± 0.0032
